Laboratory results reported in USRE46511E1, “Fused pyrimidine derivatives for inhibition of tyrosine kinase activity” (HANMI SCIENCE CO., LTD., priority 2010, dated 2017).

Experiments:
[1] = tested on: A431 (EGFR WT); assay: Inhibition test for growth of cancer cell expressing EGFR (SRB), A431; assay type: cell-based; conditions: Homo sapiens, A-431; A431 cells, 72 hours, SRB; read-out: GI50 A431 EGFR WT;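 further: cells in 96-well plates exposed to tenfold serial dilutions from 100 µM down to 10^−6 µM, DMSO under 1%, SRB staining read as absorbance at 540 nm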
Method: (§1) A431 cell line was incubated in a high-glucose DMEM (Dulbecco's Modified Eagle's Medium) supplemented with 10% fetal bovine serum (FBS) and 1% penicillin/streptomycin (Gibco BRL), and HCC827 and NCI-H1975 cell lines were incubated in an RPMI medium supplemented with 10% FBS, 1% penicillin/streptomycin and 1% sodium pyruvate.
(§2) The cancer cell lines stored in a liquid nitrogen tank were each quickly thawed at 37° C., and centrifuged to remove the medium. The resulting cell pellet was mixed with a culture medium, incubated in a culture flask at 37° C. under 5% CO2 for 2 to 3 days, and the medium was removed. The remaining cells were washed with DPBS (Dulbecco's Phosphate Buffered Saline) and separated from the flask by using Tripsin-EDTA. […] 100 μl of the diluted cell solution was added to each well of a 96-well plate, and incubated at 37° C. under 5% CO2 for 1 day.
(§3) In case that the test compound was not soluble in DMSO, 1% HCl was added thereto and treated in a 40° C. water bath for 30 mins until a complete dissolution was attained. The DMSO solution containing test compound was diluted with a culture medium to a final concentration of 100 μM, and then diluted 10 times serially to 10^−6 μM (a final concentration of DMSO was less than 1%).
(§4) The medium was removed from each well of the 96-well plate. And then, 100 μl of a test compound solution was added to each well holding the cultured cells, and the plate was incubated at 37° C. under 5% CO2 for 72 hours (except that NCI-H1975 cells were incubated for 48 hours). After removing the medium from the plate, 50 μA of 10% trichloroacetic acid was added to each well, and the plate was kept at 4° C. for 1 hour to fix the cells to the bottom of the plate. The added 10% trichloroacetic acid solution was removed from each well, the plate was dried, 100 μA of an SRB (Sulforhodamine-B) dye solution at a concentration of 0.4% dissolved in 1% acetic acid was added thereto, and the resulting mixture was reacted for 10 mins at room temperature. After removing the dye solution, the plate was washed with water, and well dried. When the dye solution was not effectively removed by water, 1% acetic acid was used. 150 μA of 10 mM trisma base was added to each well, and the absorbance at 540 nm wavelength was determined with a microplate reader.

[2] = target: T1, BMX (Homo sapiens, UniProt P51813); assay: z-lyte kinase assay, BMX; assay type: biochemical
T1 construct: purchased Invitrogen
T1 sequence (P51813 1-675): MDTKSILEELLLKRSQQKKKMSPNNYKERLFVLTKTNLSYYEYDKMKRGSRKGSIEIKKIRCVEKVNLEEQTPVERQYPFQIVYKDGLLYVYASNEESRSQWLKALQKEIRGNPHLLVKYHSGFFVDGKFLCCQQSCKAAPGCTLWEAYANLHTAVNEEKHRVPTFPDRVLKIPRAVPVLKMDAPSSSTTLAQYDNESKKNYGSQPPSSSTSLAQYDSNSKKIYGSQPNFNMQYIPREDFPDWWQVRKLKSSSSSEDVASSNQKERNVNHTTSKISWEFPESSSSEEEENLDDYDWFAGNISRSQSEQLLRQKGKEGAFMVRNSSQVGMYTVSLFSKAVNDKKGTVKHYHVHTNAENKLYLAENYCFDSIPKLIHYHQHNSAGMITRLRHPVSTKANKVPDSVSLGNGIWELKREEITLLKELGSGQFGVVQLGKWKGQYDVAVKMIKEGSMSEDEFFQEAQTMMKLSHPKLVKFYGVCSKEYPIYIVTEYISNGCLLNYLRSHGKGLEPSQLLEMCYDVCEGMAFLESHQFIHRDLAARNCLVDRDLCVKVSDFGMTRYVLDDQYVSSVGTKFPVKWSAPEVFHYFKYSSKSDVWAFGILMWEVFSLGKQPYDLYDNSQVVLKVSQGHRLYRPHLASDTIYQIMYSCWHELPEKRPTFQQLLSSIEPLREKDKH

[3] = tested on: HCC827 (EGFR DelE746_A750); assay: Inhibition test for growth of cancer cell expressing EGFR (SRB), HCC827; assay type: cell-based; conditions: Homo sapiens, HCC827, 72 h, HCC827 cells, 72 hours, SRB; read-out: GI50 HCC827 EGFR DelE746_A750;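 further: cells in 96-well plates exposed to tenfold serial dilutions from 100 µM, fixed with trichloroacetic acid, SRB-stained, absorbance read at 540 nm, DMSO under 1%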
Method: as §1, §2, §3, §4

GI50 [1]: > 1000 nM
IC50 [2]: ≤ 50 nM
GI50 [3]: < 50 nM
SMILES: C=CC(=O)Nc1cccc(Oc2nc(Nc3ccc(N4CCN(C)CC4)cc3)nc3ccsc23)c1 [Example 1, N-(3-(2-(4-(4-methylpiperazin-1-yl)phenylamino)thieno[3,2-d]pyrimidine-4-yloxy)phenyl)acrylamide]
